How the values were obtained:
MMP1 expression by SFs = assay: 'MMP assay': MMP1 expression by 'complex trigger' activated synovial fibroblasts (MMP1 ELISA); assay type: cell-based, human; settings: Homo sapiens, Fibroblast, RASFs, 48 hrs
[1] = test system: TNFα release by human PBMCs; assay: Cytokine release by LPS-stimulated human PBMCs (TNFα ELISA); assay type: cell-based; settings: PBMC, LPS 1 μg/mL, 24 hr
Experimental: Human peripheral blood mononuclear cells (PBMCs) are isolated from “buffy coats” prepared from the blood of healthy volunteers, isolated essentially according to method of Bøyum (1984). In brief, buffy coat is diluted 1:1 with 1×PBS (Gibco) and 30 mL is carefully put on top of 20 mL Lymphoprep™ (Lucron Bioproducts) in 50 mL Falcon tubes. After centrifugation (35 min, 400 g, 18° C.) the mononuclear cells are collected from the white interphase and washed 3 times with 1×PBS by resuspending and centrifugation (10 min, 200 g). Isolated PBMCs are finally resuspended in RPMI 1640 (Cat. No. 21875, Gibco) that is supplemented with 10% heat-inactivated FBS (Hyclone).
For the assay PBMCs are seeded at 2.5E6 cells/mL in 160 μL in 96-well plates (Nunc). Serial dilution of the test compounds are made first in DMSO (Sigma) and then diluted 50-fold in M199 medium (Gibco) containing 1% heat-inactivated FBS. Compounds are further 1/10 diluted in the assay plates to obtain final DMSO concentration of 0.2%. Cells are preincubated with the compounds for 1 hr at 37° C., 5% CO2. Then, cells are stimulated with LPS (Escherichia coli serotype 026:B6, Cat. No. L2654, Sigma) that is added in a volume of 20 μL to a final concentration of 1 μg/mL and cells are further cultured for 24 hr. The plates are centrifuged and the supernatant is collected and stored at −80° C. until analysis of appropriate dilutions in ELISAs.
The following 384-well chemiluminescent ELISA protocol was developed to measure TNFα levels in the supernatant: White Lumitrac 600 384-well plates (Greiner) are coated with (40 μL/well) anti-TNFα capture antibody (Cat. No. 551220, BD Pharmingen) that is diluted to 1 μg/mL in 1×PBS (Gibco). After overnight incubation at 4° C., plates are washed with 1×PBS (80 g NaCl, 2 g KCl (Sigma), 11.5 g Na2HPO4.7H2O and 2 g KH2PO4 in 10 L milliQ; pH 7.4) and blocked with 100 μL/well buffer B (1×PBS containing 1% BSA (Sigma), 5% sucrose (Sigma) and 0.05% NaN3 (Sigma)). After 4 hr incubation at RT, blocking buffer is removed and plates are washed once with PBST (1×PBS with 0.05% Tween-20 (Sigma)). Then, 40 μL of sample is transferred to the ELISA plates and plates are incubated at 4° C. Next day, plates are washed 3 times (twice with PBST and once with PBS) and 35 μL/well biotinylated anti-TNFα antibody (Cat. No. 554511, BD Pharmingen) diluted first to a concentration of 250 ng/ml in buffer D (1×PBS with 1% BSA) is added. After 2 h of incubation at RT, plates are washed as described above and 35 μL/well of a 1/2000 dilution of streptavidin-HRP conjugate (Cat. No. SNN2004, Biosource) in buffer D is added. After 45 min, plates are washed as described above and incubated for 5 min with 50 μL/well BM Chemiluminescence ELISA Substrate POD (Roche). Readout is performed on the Luminoscan Ascent Luminometer (Labsystems) with an integration time of 100 msec delivering raw data (RLU: relative luminescence units). The following controls are included in the experiments, a maximal signal control, in which the cells are activated by LPS but only the 0.2% DMSO vehicle (and thus no compound) is added. This control indicates the maximal level of TNFα that can be achieved in the test. A minimal signal control is also included in these experiments. Here, cells are not triggered. This control returns the basal TNFα levels produced by the PBMCs. The percent inhibition (PIN) of the TNFα release, achieved by the compounds is then calculated based on the RLU data returned by the ELISA with following formula: 100−[((TNFα level compound X at concentration Y−minimal TNFα levels)/(maximal TNFα levels−minimal TNFα levels))×100]. Where compounds are tested at 8 concentrations (1/3 serial dilution), EC50-values can be calculated by curve fitting of the means of the PIN data achieved for a compound at each test concentration. […]

MAPKAPK5 = target: T1, MAPKAPK5 (Homo sapiens, UniProt Q8IW41); assay: MAPKAP-K5 assay (FlashPlate, 33P-ATP); assay type: biochemical; settings: 0.6 μM ATP, 30 minutes at room temperature
T1 construct: 1 mU MAPKAP-K5
T1 sequence (Q8IW41 1-473): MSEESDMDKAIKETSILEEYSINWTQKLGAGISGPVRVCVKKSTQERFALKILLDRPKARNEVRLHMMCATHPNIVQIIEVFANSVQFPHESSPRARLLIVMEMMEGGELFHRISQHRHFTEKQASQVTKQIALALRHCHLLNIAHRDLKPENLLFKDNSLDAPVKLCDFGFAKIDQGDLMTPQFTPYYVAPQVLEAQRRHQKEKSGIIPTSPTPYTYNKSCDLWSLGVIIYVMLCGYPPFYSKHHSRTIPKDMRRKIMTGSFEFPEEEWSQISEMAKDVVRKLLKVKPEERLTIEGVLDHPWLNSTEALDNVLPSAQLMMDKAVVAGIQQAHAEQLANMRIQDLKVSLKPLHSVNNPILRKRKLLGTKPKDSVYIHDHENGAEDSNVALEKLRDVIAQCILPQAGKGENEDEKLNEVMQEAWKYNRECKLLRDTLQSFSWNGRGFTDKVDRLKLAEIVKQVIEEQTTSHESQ
Experimental: 3 μM MAPKAP-K5 peptide substrate

SMILES	EC50 (MMP1 expression by SFs) [nM]	EC50 [1] [nM]	IC50 (MAPKAPK5) [nM]
O=C1NCc2cc(-c3cnc(Nc4ccc(N5CCOCC5)cc4)c4nccn34)ccc21 [Compound 178, 5-[8-(4-Morpholin-4-yl-phenylamino)-imidazo[1,2-a]pyrazin-5-yl]-2,3-dihydro-isoindol-1-one]	101 to 500	1 to 100	
NC(=O)c1ccc(-c2cnc(Nc3ccc(N4CCOCC4)cc3)c3nccn23)s1 [Compound 152]	101 to 500	101 to 500	
Cn1nnc(-c2ccc(Nc3ncc(-c4ccc(C(N)=O)cc4)n4ccnc34)cc2)n1 [Compound 170]	101 to 500		> 1000
CCN(CCO)c1ccc(Nc2ncc(-c3cccc(N)c3)n3ccnc23)cc1 [Compound 7]	> 1000		> 1000
O=C(O)c1cccc(Nc2ncc(-c3cn[nH]c3)n3ccnc23)c1 [Compound 51]	> 1000		> 1000
COc1cc(Nc2ncc(-c3cn[nH]c3)n3ccnc23)ccc1C(=O)NCc1ccccc1 [Compound 182]	> 1000		> 1000
NC(=O)c1c(F)cc(-c2cnc(Nc3ccc(OCCN4CCOCC4)cc3)c3nccn23)cc1F [Compound 216]	> 1000		501 to 1000
CC(=O)Nc1ccc(Nc2ncc(-c3cn[nH]c3)n3ccnc23)cc1 [Compound 31]	> 1000		501 to 1000
NC(=O)c1ccc(-c2cnc(Nc3cccc(N4CCOCC4)c3)c3nccn23)cc1 [Compound 172]	> 1000		> 1000
CCN(CC)CCNC(=O)c1ccc(Nc2ncc(-c3cccnc3)n3ccnc23)cc1 [Compound 72]	> 1000		> 1000
c1cn2c(-c3cn[nH]n3)cnc(Nc3ccc(N4CCOCC4)cc3)c2n1 [Compound 67]	> 1000		> 1000
Fc1ccc(Nc2ncc(-c3cn[nH]c3)n3ccnc23)cc1Cl [Compound 17]	> 1000		> 1000
NCc1cccc(CNC(=O)c2ccc(Nc3ncc(-c4cn[nH]c4)n4ccnc34)cc2)c1 [Compound 95]	101 to 500		> 1000
c1cn2c(-c3nc[nH]n3)cnc(Nc3ccc(N4CCOCC4)cc3)c2n1 [Compound 91]	> 1000		> 1000
CC(C)N1CCC(c2ccc(Nc3ncc(-c4csc(C(N)=O)c4)n4ccnc34)cc2)CC1 [Compound 199, 4-{8-[4-(1-Isopropylpiperidin-4-yl)phenyl-amino]imidazo[1,2-a]pyrazin-5-yl}thiophene-2-carboxylic acid amide]	101 to 500		101 to 500
O[C@H]1CC[C@H](Nc2ncc(-c3cn[nH]c3)n3ccnc23)CC1 [Compound 25]	> 1000		> 1000
CCN(CC)CCNC(=O)c1ccc(Nc2ncc(-c3nc[nH]n3)n3ccnc23)cc1 [Compound 105]	> 1000		> 1000

SMILES	EC50 (MMP1 expression by SFs) [nM]	EC50 [1] [nM]	IC50 (MAPKAPK5) [nM]
CCN(CC)CCNC(=O)c1ccc(Nc2ncc(C#N)n3ccnc23)cc1 [Compound 101]	> 1000		> 1000
NC(=O)c1ccc(-c2cnc(Nc3ccc4[nH]ccc4c3)c3nccn23)cc1 [Compound 28]	501 to 1000		> 1000
Nc1ccc(Nc2ncc(-c3cn[nH]c3)n3ccnc23)cc1 [Compound 15]	> 1000		> 1000
CCN(CC)CCNC(=O)c1ccc(Nc2ncc(-c3cccs3)n3ccnc23)cc1 [Compound 78]	> 1000		> 1000
NC(=O)c1ccc(-c2cnc(Nc3cccnc3)c3nccn23)cc1 [Compound 96]	> 1000		> 1000
CCN(CC)CCNC(=O)c1ccc(Nc2ncc(-c3cn[nH]c3)n3ccnc23)c(C)c1 [Compound 58]	> 1000		> 1000
O=C(NCc1ccc(O)cc1)c1ccc(Nc2ncc(-c3cc[nH]c(=O)c3)n3ccnc23)cc1 [Compound 112]	101 to 500		101 to 500
CCN(CC)CCNC(=O)c1ccc(Nc2ncc(-c3ccncc3)n3ccnc23)cc1 [Compound 86]	> 1000		> 1000
CN1CCN(c2ccc(Nc3ncc(-c4ccc(=O)[nH]c4)n4ccnc34)cc2)CC1 [Compound 109]	> 1000		> 1000
N#Cc1ccc(Nc2ncc(-c3cn[nH]c3)n3ccnc23)cc1Cl [Compound 34]	501 to 1000		> 1000
COC(=O)c1cccc(Nc2ncc(-c3cn[nH]c3)n3ccnc23)c1 [Compound 20]	> 1000		> 1000
O=C1NCc2cc(-c3cnc(Nc4cnc(N5CCOCC5)nc4)c4nccn34)ccc21 [Compound 215]	> 1000		101 to 500
Cc1cnc2c(Nc3ccc(N4CCOCC4)cc3)ncc(-c3cn[nH]c3)n12 [Compound 131, [3-Methyl-5-(1H-pyrazol-4-yl)imidazo[1,2-a]pyrazin-8-yl]-(4-morpholin-4-yl-phenyl)amine]	> 1000		> 1000
CCc1cnc2c(Nc3ccc(N4CCOCC4)cc3)ncc(-c3ccc(C(N)=O)cc3)n12 [Compound 162, 4-[3-Ethyl-8-(4-morpholin-4-ylphenylamino)-imidazo[1,2-a]pyrazin-5-yl]benzamide]	501 to 1000		> 1000
CCN(CC)CCNC(=O)c1ccc(Nc2ncc(-c3ccc(C(N)=O)cc3)n3ccnc23)cc1 [Compound 46]	> 1000		> 1000
NC(=O)c1ccc(-c2cnc(Nc3ccc(C(=O)NCCO)cc3)c3nccn23)cc1 [Compound 49]	> 1000		> 1000

Reference: patent US8178530B2, “Imidazolopyrazine compounds useful for the treatment of degenerative and inflammatory diseases” (Janssen Pharmaceutica NV, priority 2006, dated 2012)
